From publication PMC11963566, “A phase I, single-center, randomized, open-label, three-period crossover study to evaluate the drug–drug interaction between ZSP1273 and oseltamivir in healthy Chinese subjects” (Antimicrobial Agents and Chemotherapy, 2025)
Like-named read-outs stand apart in the source and are kept apart here.

Experiments:
clinical = details: human; for AUC(0-inf): AUC0-∞,ss
[1] = Safety assessment: adverse events (CTCAE 5.0, MedDRA 23.1) in healthy subjects; type: in vivo, human
Method: Safety assessment was conducted from the first administration of the investigational drug until the end of the trial. Safety indicators included adverse events (AEs), serious adverse events (SAEs), clinical laboratory tests (hematology, biochemistry, and urinalysis), vital signs, physical examination, and 12-lead electrocardiogram.
The severity of AE was assessed according to the CTCAE 5.0 standard and includes grades 1 to 5. Based on the criteria for determining causality between drugs and adverse events, the relationship was classified into five levels: definitely related, probably related, possibly related, probably not related, definitely not related. Among them, definitely related, probably related, and possibly related are defined as drug-related AEs.
Adverse events were coded using Med DRA 23.1 Chinese ([30]) and analyzed based on system organ class (SOC) and preferred term (PT). Adverse events during the treatment period, drug-related adverse events, and serious adverse events were described by frequency, number of cases (n), and incidence rate (%) according to SOC, PT, and the highest severity classification.

[2] = subjects with AUC_%Extrap >20.0% or Rsq <0.800 excluded
[3] = SOC Gastrointestinal disorders, probably related
[4] = SOC General disorders and administration site conditions, possibly related
[5] = SOC Infections and infestations, probably not related
[6] = SOC Investigations, possibly related
[7] = SOC Investigations, probably not related
[8] = SOC Skin and subcutaneous tissue disorders, possibly related
[9] = healthy subjects, 5 days dosing

Compound: CCOC(=O)C1=C[C@@H](OC(CC)CC)[C@H](NC(C)=O)[C@@H](N)C1 [Oseltamivir, oseltamivir]
- AUC0-t,ss, geometric mean ratio co-administration/monotherapy (human, in vivo): 92.7%
- AUC0-τ,ss, geometric mean ratio co-administration/monotherapy (human, in vivo): 92.2%
- AUC0-∞,ss, geometric mean ratio co-administration/monotherapy (human, in vivo): 92.6%
- AUC0-∞,ss, intra-individual coefficient of variation (human, in vivo): 11.8%
- Cmax,ss, geometric mean ratio co-administration/monotherapy (human, in vivo): 60.1%
- decrease in Cmax,ss after co-administration (human, in vivo): 39.9%
- CLss/F (human, in vivo, po): 459.8 ± 106.3 (23.1%) L/h
- AUC0-∞,ss, geometric mean ratio co-administration/monotherapy [2]: 93.5%
- AUC0-∞,ss, intra-individual coefficient of variation [2]: 10.7%
- AUC(0-t) (clinical; in vivo, AUC0-t,ss, geometric mean): 170 ng·h/mL
- AUC (clinical; in vivo, AUC0-τ,ss, geometric mean): 167 ng·h/mL
- AUC(0-inf) (clinical; in vivo, geometric mean): 175 ng·h/mL
- AUC(0-inf) (clinical; in vivo, geometric mean, monotherapy, subjects with AUC_%Extrap >20.0% or Rsq <0.800 excluded): 175 ng·h/mL
- Cmax (clinical; in vivo, Cmax,ss, geometric mean): 91.2 ng/mL
- Tmax (clinical; in vivo, po, Tmax,ss): 0.5 h
- Vd/F (clinical; in vivo, po, Vz/F): 3070 L
- half-life (clinical; in vivo, po, t1/2,ss): 4.5 ± 4.8 h
- AUC(0-inf) (clinical; plasma, oral, geometric mean, co-administration ZSP1273 + oseltamivir, plasma, day 5, all subjects): 163 ng·h/mL
- k el (clinical; plasma, po, 75 mg): 7.78e-05 s⁻¹
- Gastrointestinal disorders (SOC): Cases (%) ([1]; AE by system organ class): 0 Cases (%)
- Gastrointestinal disorders (SOC): Occurrences ([1]; AE by system organ class): 0
- General disorders and administration site conditions (SOC): Cases (%) ([1]; AE by system organ class): 0 Cases (%)
- General disorders and administration site conditions (SOC): Occurrences ([1]; AE by system organ class): 0
- Infections and infestations (SOC): Cases (%) ([1]; AE by system organ class): 1 (2.9) Cases (%)
- Infections and infestations (SOC): Occurrences ([1]; AE by system organ class): 1
- Investigations (SOC): Cases (%) ([1]; AE by system organ class): 6 (17.6) Cases (%)
- Investigations (SOC): Occurrences ([1]; AE by system organ class): 12
- Skin and subcutaneous tissue disorders (SOC): Cases (%) ([1]; AE by system organ class): 1 (2.9) Cases (%)
- Skin and subcutaneous tissue disorders (SOC): Occurrences ([1]; AE by system organ class): 1
- Diarrhea: Cases (%) [1, 3]: 0 Cases (%)
- Diarrhea: Occurrences [1, 3]: 0
- Fever: Cases (%) [1, 4]: 0 Cases (%)
- Fever: Occurrences [1, 4]: 0
- Upper respiratory tract infection (URTI): Cases (%) [1, 5]: 1 (2.9) Cases (%)
- Upper respiratory tract infection (URTI): Occurrences [1, 5]: 1
- Decreased blood triglycerides: Cases (%) [1, 6]: 1 (2.9) Cases (%)
- Decreased blood triglycerides: Occurrences [1, 6]: 1
- Decreased high-density lipoprotein (HDL): Cases (%) [1, 6]: 2 (5.9) Cases (%)
- Decreased high-density lipoprotein (HDL): Occurrences [1, 6]: 2
- Decreased neutrophil count: Cases (%) [1, 6]: 0 Cases (%)
- Decreased neutrophil count: Occurrences [1, 6]: 0
- Increased blood cholesterol: Cases (%) [1, 6]: 0 Cases (%)
- Increased blood cholesterol: Occurrences [1, 6]: 0
- Increased blood creatinine: Cases (%) [1, 6]: 0 Cases (%)
- Increased blood creatinine: Occurrences [1, 6]: 0
- Increased blood triglycerides: Cases (%) [1, 6]: 1 (2.9) Cases (%)
- Increased blood triglycerides: Occurrences [1, 6]: 1
- Increased blood uric acid: Cases (%) [1, 6]: 1 (2.9) Cases (%)
- Increased blood uric acid: Occurrences [1, 6]: 1
- Increased gamma-glutamyl transferase (GGT): Cases (%) [1, 6]: 0 Cases (%)
- Increased gamma-glutamyl transferase (GGT): Occurrences [1, 6]: 0
- Increased lipase: Cases (%) [1, 6]: 0 Cases (%)
- Increased lipase: Occurrences [1, 6]: 0
- Increased low-density lipoprotein (LDL): Cases (%) [1, 6]: 0 Cases (%)
- Increased low-density lipoprotein (LDL): Occurrences [1, 6]: 0
- Crystals present in urine: Cases (%) [1, 7]: 1 (2.9) Cases (%)
- Crystals present in urine: Occurrences [1, 7]: 1
- Decreased hemoglobin: Cases (%) [1, 7]: 2 (5.9) Cases (%)
- Decreased hemoglobin: Occurrences [1, 7]: 2
- Increased urine specific gravity: Cases (%) [1, 7]: 1 (2.9) Cases (%)
- Increased urine specific gravity: Occurrences [1, 7]: 1
- Nitrites present in urine: Cases (%) [1, 7]: 1 (2.9) Cases (%)
- Nitrites present in urine: Occurrences [1, 7]: 1
- Positive urine occult blood: Cases (%) [1, 7]: 1 (2.9) Cases (%)
- Positive urine occult blood: Occurrences [1, 7]: 1
- Protein detected in urine: Cases (%) [1, 7]: 1 (2.9) Cases (%)
- Protein detected in urine: Occurrences [1, 7]: 1
- Acneiform dermatitis: Cases (%) [1, 8]: 1 (2.9) Cases (%)
- Acneiform dermatitis: Occurrences [1, 8]: 1
- Maculopapular rash: Cases (%) [1, 8]: 0 Cases (%)
- Maculopapular rash: Occurrences [1, 8]: 0
- increased blood triglycerides, incidence ([1]; drug-related adverse event): 2.9%
- At least one treatment-emergent adverse event (TEAE): Cases (%) [1, 9]: 7 (20.6) Cases (%)
- At least one treatment-emergent adverse event (TEAE): Occurrences [1, 9]: 14
- At least one treatment-emergent adverse event related to drugs: Cases (%) [1, 9]: 5 (14.7) Cases (%)
- At least one treatment-emergent adverse event related to drugs: Occurrences [1, 9]: 6
